Calls of active or inactive are those of the source. The rule behind the calls is not given here.
Experiments:
[1] = Antiplatelet aggregatory activity against U46619-induced human platelet aggregation by turbidimetric method; type: functional, cell-based
Platelet [2] = test: Antiplatelet aggregatory activity against adenosine diphosphate-induced human platelet aggregation at 13 ug/ml by turbidimetric method; type: functional, cell-based
[3] = Antiplatelet aggregatory activity against U46619-induced human platelet aggregation at 6.5 ug/ml by turbidimetric method; type: functional
[4] = Antiplatelet aggregatory activity against U46619-induced human platelet aggregation at 45 ug/ml by turbidimetric method; type: functional
Platelet [5] = test: Antiplatelet aggregatory activity against adenosine diphosphate-induced human platelet aggregation at 44 ug/ml by turbidimetric method; type: functional, cell-based

| IC50 [1] | Compound | Activity (Platelet [2]) | Activity [3] | Activity [4] | Activity (Platelet [5]) |
| --- | --- | --- | --- | --- | --- |
| 12.5 µM | CC(=O)O[C@H]1[C@H]2c3c(ccc4c(=O)cc(-c5ccccc5)oc34)O[C@H]2OC1(C)C | inactive | 85% | – | – |
| – | CC(=O)O[C@H]1[C@@H]2c3c(ccc4c(=O)cc(-c5ccccc5)oc34)O[C@@H]2OC1(C)C | – | – | 70% | inactive |

From ChEMBL document CHEMBL1158931, “Pseudosemiglabrin, a platelet aggregation inhibitor from tephrosia semiglabra” (J Nat Prod, 1990)
